For test [1], the target named is T1, RXRα (Homo sapiens, UniProt P19793).
T1 construct: expressed in transfected cells
T1 sequence (P19793 1-462): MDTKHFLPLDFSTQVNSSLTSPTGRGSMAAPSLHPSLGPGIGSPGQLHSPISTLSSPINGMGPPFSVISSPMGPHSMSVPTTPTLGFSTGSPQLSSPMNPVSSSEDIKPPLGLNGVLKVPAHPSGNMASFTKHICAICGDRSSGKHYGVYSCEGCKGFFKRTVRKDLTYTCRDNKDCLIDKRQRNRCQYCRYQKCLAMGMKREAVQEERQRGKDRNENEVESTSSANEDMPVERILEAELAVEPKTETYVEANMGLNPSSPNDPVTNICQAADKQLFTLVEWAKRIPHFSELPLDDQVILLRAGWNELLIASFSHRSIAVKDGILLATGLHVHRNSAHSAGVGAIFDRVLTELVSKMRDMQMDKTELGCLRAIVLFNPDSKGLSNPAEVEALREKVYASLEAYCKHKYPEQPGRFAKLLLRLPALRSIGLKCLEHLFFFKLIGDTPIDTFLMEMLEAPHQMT
In words: holoreceptor transactivation assay, RXRα. To be noted: for EC50: holoreceptor transactivation, read-out: RXR Trans. EC50 α; for Emax: percentage compared to the standard compound, read-out: RXR Trans. efficacy (number in parentheses) α. The format is cell-based. Put shortly: (§1)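 Cells carrying either full-length RXR (holoreceptor) or chimeric RAR receptors were exposed to compound and reporter transactivation recorded. Potency was expressed as EC50 in nanomolar. Efficacy was expressed as percent of the maximal response of a reference cyclopropyl-tetramethyltetrahydronaphthalene penta-2,4-dienoic acid.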

In a further test the target is T2, RXRβ (UniProt P28704).
T2 sequence (P28704 1-520): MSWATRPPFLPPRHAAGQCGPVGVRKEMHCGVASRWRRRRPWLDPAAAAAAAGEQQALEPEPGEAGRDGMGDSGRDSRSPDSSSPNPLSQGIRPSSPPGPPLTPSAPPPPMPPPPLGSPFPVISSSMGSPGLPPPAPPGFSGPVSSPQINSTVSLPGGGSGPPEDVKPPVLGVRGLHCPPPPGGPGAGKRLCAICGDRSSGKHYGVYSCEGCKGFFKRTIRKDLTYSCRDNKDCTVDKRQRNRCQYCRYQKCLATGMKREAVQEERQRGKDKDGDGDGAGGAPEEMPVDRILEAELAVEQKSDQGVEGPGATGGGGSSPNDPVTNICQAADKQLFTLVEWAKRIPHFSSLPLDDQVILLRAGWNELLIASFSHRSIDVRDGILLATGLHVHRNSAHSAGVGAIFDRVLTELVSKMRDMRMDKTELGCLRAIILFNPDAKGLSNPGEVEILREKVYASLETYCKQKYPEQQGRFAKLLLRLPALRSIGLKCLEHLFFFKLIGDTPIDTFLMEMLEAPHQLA
In words: holoreceptor transactivation assay, RXRβ. To be noted: for EC50: holoreceptor transactivation, read-out: RXR Trans. EC50 β; for RXR Trans. efficacy (number in parentheses) β: percentage compared to the standard compound. It is filed as cell-based. In outline: as §1

For another test, the target named is T3, RARβ (Homo sapiens, UniProt P10826).
T3 sequence (P10826 1-455): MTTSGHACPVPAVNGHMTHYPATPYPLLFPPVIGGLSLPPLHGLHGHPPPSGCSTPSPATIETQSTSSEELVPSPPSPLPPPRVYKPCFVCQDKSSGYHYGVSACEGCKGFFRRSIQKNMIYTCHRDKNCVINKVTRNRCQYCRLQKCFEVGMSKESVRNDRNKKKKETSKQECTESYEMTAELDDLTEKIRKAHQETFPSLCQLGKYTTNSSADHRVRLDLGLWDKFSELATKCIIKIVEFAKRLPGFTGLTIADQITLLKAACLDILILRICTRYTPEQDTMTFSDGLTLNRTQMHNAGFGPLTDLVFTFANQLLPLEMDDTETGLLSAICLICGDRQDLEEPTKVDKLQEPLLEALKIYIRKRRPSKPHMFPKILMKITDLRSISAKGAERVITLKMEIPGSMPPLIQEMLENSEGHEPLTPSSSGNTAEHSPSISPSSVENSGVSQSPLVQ
In words: ligand binding assay, RARβ. To be noted: for Ki: read-out: RAR Bind. Ki β; for Kd: Table 9 (Formula F), read-out: RAR β Kd. Put shortly:
(§2)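 Binding of compounds to several retinoid receptor subtypes was measured. Results are given as Ki values in nanomolar concentration, derived per Cheng et al.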

Test [2] addresses T1, RXRα. In words: ligand binding assay, RXRα. To be noted: for Ki: read-out: RXR Bind Ki α; for Kd: Table 9 (Formula F), read-out: RXR α Kd. Put shortly:
as §2

The structures appear in SMILES notation.

For orientation: EC50 means the concentration that produces a half-maximal response. What is called Ki is the dissociation constant of the complex between target and ligand, obtained from inhibition or displacement. As for `CCOc1cc2c(cc1\C(C)=C/C=C/C(C)=C/C(=O)O)C(CC)=CC(C)(C)O2` [Compound 45, 7-(7-Ethoxy-4-ethyl-2,2-dimethyl-2H-chromen-6-yl)-3-methyl-octa-2E,4E,6Z-trienoic acid], the EC50 is 78 nM at RXRα [1] and > 1000 nM on RXRβ. Further, the Emax on RXRα [1] was 5%. Further, the Ki turned out to be 196 nM on RARβ and 52 nM at RXRα [2].

Consider `CCOc1cc2c(cc1\C(=C/C=C/C(C)=C/C(=O)O)CC)C(C)=CC(C)(C)O2` [Compound 46, 7-(7-Ethoxy-2,2,4-trimethyl-2H-chromen-6-yl)-3-methyl-nona-2E,4E,6Z-trienoic acid], for which the EC50 at RXRα [1] and at RXRβ was > 1000 nM in each case. Besides, the Ki at RARβ came to 614 nM; at RXRα [2] it was 199 nM.

On to `CCOc1cc2c(cc1\C(C)=C(F)/C=C/C(C)=C/C(=O)O)C=CCC2(C)C` [Compound A-76, (2E,4E,6E)-7-(3-Ethoxy-5,5-dimethyl-5,6-dihydro-naphthalen-2-yl)-6-fluoro-3-methyl-octa-2,4.6-trienoic acid], for which, on RXRα [1], the EC50 came to 50 nM and the Emax worked out at 104%. For the same compound, on RXRβ, the EC50 was 368 nM and the “RXR Trans. efficacy (number in parentheses) β” value (from here on “RXR Trans. efficacy”) turned out to be 128%. Further, at RARβ, the Ki came out at 2600 nM. The Ki at RXRα [2] was determined as 35 nM.

As usually defined, the Kd is the concentration at which binding is half-saturated. As for `CCOc1c(\C(CC)=C(F)/C=C/C(C)=C/C(=O)O)cc2c(c1Cl)C(C)(C)CC=C2C(C)C` [Compound A-178, (2E,4E,6E)-7-(4-Chloro-3-ethoxy-8-isopropyl-5,5-dimethyl-5,6-dihydronaphthalen-2-yl)-6-fluoro-3-methyl-nona-2,4,6-trienoic acid], at RXRα [1], the EC50 is 0.1 nM and the Emax came out at 43%. In addition, at RXRβ, the 50% effective concentration (EC50) was found to be 0.5 nM and the “RXR Trans. efficacy” value amounted to 53%. In addition, the Kd at RARβ was found to be 79 nM. The Kd at RXRα [2] was 1 nM.

As for `CCOc1c(\C(C)=C(F)/C=C/C(C)=C/C(=O)O)cc2c(c1Cl)OC(C)(C)C=C2C(C)C` [Compound 172, 7-(8-Chloro-4-isopropyl-7-ethoxy-2,2-dimethyl-2H-chromen-6-yl)-6-fluoro-3-methyl-octa-2E,4E,6E-trienoic acid], at RXRα [1], the EC50 amounted to 5.4 nM and the Emax worked out at 52%. Moreover, at RXRβ, the EC50 was determined as 52 nM and the “RXR Trans. efficacy” value was determined as 45%. In addition, the Ki on RARβ came out at 442 nM. For the same compound, the Ki at RXRα [2] turned out to be 10 nM.

Take `CC/C(=C(F)/C=C/C(C)=C/C(=O)O)c1cc2c(c(Cl)c1OC)OC(C)(C)C=C2C(C)C` [Compound 171, 7-(8-Chloro-4-isopropyl-7-methoxy-2,2-dimethyl-2H-chromen-6-yl)-6-fluoro-3-methyl-nona-2E,4E,6E-trienoic acid]: at RXRα [1], the EC50 is 0.02 nM and the Emax came to 87%. In addition, on RXRβ, the EC50 was 0.2 nM and the “RXR Trans. efficacy” value is 85%. Moreover, the Ki at RARβ stood at 381 nM. On RXRα [2], the Ki worked out at 1.3 nM.

Consider `CCOc1c(\C(C)=C(F)/C=C/C(C)=C/C(=O)O)cc2c(c1Br)C(C)(C)CC=C2C(C)C` [Compound A-169, (2E,4E,6E)-7-(4-Bromo-3-ethoxy-8-isopropyl-5,5-dimethyl-5,6-dihydro-naphthalen-2-yl)-6-fluoro-3-methyl-octa-2.4,6-trienoic acid], for which, on RXRα [1], the EC50 was 0.4 nM and the Emax stood at 66%. At RXRβ, the EC50 was 2.2 nM and the “RXR Trans. efficacy” value turned out to be 68%. Further, the Kd on RARβ amounted to 252 nM. Also, at RXRα [2], the Kd was found to be 3 nM.

With `CCOc1cc2c(cc1\C(=C/C=C/C(C)=C/C(=O)O)CC)C(C(C)(C)C)=CCC2(C)C` [Compound A-18, 7-(8-tert-butyl-3-ethyoxy-5,5-dimethyl-5,6-dihydronaphthalen-2-yl)-3-methyl-nona-2E,4E,6Z-trienoic acid], the EC50 at RXRα [1] stood at 2.6 nM; at RXRβ, 11 nM. At RXRα [1], the Emax was 18%. On RXRβ, the “RXR Trans. efficacy” value is recorded as 21%. For the same compound, the Ki at RARβ worked out at 137 nM; on RXRα [2] it was 5 nM.

On to `CC/C(=C/C=C/C(C)=C/C(=O)O)c1cc2c(cc1OC)OC(C)(C)C=C2C(C)C` [Compound 44, 7-(4-Isopropyl-7-methoxy-22-dimethyl-2H-chromen-6-yl)-3-methyl-nona-2E,4E,6Z-trienoic acid], for which, on RXRα [1], the EC50 was 0.3 nM and the Emax came out at 89%. In addition, on RXRβ, the EC50 came to 4.4 nM and the “RXR Trans. efficacy” value worked out at 94%. Further, the Ki at RARβ came to 617 nM. In addition, the Ki on RXRα [2] was determined as 4 nM.

For the compound `CCOc1c(\C(C)=C(F)/C=C/C(C)=C/C(=O)O)cc2c(c1Cl)C(C)(C)CC=C2C(C)C` [Compound A-177, (2E,4E,6E)-7-(4-Chloro-3-ethoxy-8-isopropyl-5,5-dimethyl-5,6-dihydronaphthalen-2-yl)6-fluoro-3-methyl-octa-2,4,6-trienoic acid], on RXRα [1], the EC50 is 0.1 nM and the Emax is 72%. For the same compound, on RXRβ, the EC50 was 0.5 nM and the “RXR Trans. efficacy” value is 66%. Moreover, the Kd at RARβ stood at 443 nM. The Kd on RXRα [2] was 2 nM.

Consider `CCOc1cc2c(cc1\C(CC)=C(F)/C=C/C(C)=C/C(=O)O)C(CC)=CCC2(C)C` [Compound A-78, (2E,4E,6E)-7-(3-Ethoxy-8-ethyl-5,5-dimethyl-5,6-dihydro-naphthalen-2-yl)-6-fluoro-3-methyl-nona-2,4,6-trienoic acid], for which the EC50 on RXRα [1] came out at 3 nM; at RXRβ, 18 nM. In addition, at RXRα [1], the Emax was found to be 23%. On RXRβ, the “RXR Trans. efficacy” value stood at 23%. Moreover, the Ki is 477 nM on RARβ and 3 nM at RXRα [2].

Take `CCOc1cc2c(cc1\C(C)=C(F)/C=C/C(C)=C/C(=O)O)C(C)=CCC2(C)C`: the concentration giving a half-maximal response (EC50) came to 3 nM on RXRα [1] and 12 nM at RXRβ. For the same compound, the Emax at RXRα [1] was 62%. Further, the “RXR Trans. efficacy” value on RXRβ is 59%. The Ki is 359 nM on RARβ and 2 nM on RXRα [2].

In the case of `COc1cc2c(cc1\C(C)=C(F)/C=C/C(C)=C/C(=O)O)C(C(C)C)=CC(C)(C)O2` [Compound 121, (2E,4E,6E)-6-Fluoro-7-(4-isopropyl-7-methoxy-2,2-dimethyl-2H-chromen-6-yl)-3-methyl-octa-2,4,6-trienoic acid], at RXRα [1], the EC50 was determined as 5 nM and the Emax worked out at 59%. On RXRβ, the EC50 came to 51 nM and the “RXR Trans. efficacy” value is recorded as 72%. For the same compound, the Ki on RARβ was 2100 nM. Moreover, on RXRα [2], the inhibition constant Ki amounted to 7 nM.

With `CCC1=CC(C)(C)Oc2cc(OC)c(\C(C)=C(F)/C=C/C(C)=C/C(=O)O)cc21` [Compound 120, 7-(4Ethyl-7-methoxy-2,2-dimethyl-2H-chromen-6-yl)-6-fluoro-3-methyl-octa-2E,4E,6E-trienoic acid], the EC50 at RXRα [1] and on RXRβ was > 10000 nM in each case. The Ki on RARβ was found to be 8100 nM; at RXRα [2], 277 nM.

As to `CCOc1cc2c(cc1\C(CC)=C(F)/C=C/C(C)=C/C(=O)O)C=CCC2(C)C` [Compound A-77], the EC50 at RXRα [1] was 41 nM; at RXRβ, > 1000 nM. In addition, the Emax on RXRα [1] was found to be 69%. In addition, the Ki at RARβ was found to be 371 nM; on RXRα [2], 6 nM.

These data come from patent US6887896B1, “7-[(7-Alkoxy)-chrom-3-en-6-yl]-heptatrienoic acid and 7-[(3-alkoxy)-5,6-dihydronaphthalen-2-yl]-heptatrienoic acid derivatives having serum glucose reducing activity” (Allergan, Inc., priority 2003, dated 2005).
